Data from ChEMBL document CHEMBL1123480, “Pyrazole derivatives. 5. Synthesis and antineoplastic activity of 3-(2-chloroethyl)-3,4-dihydro-4-oxopyrazolo[5,1-d]-1,2,3, 5-tetrazine-8-carboxamide and related compounds” (J Med Chem, 1986).
Activity calls are given as the source filed them.

Tests used:
P388 = test: Antineoplastic activity against NCI P388 cell; IA=Inactive; assay type: functional, cell-based; settings: Mus musculus
L1210 = test: Antineoplastic activity against L1210 cell line; IA=Inactive; assay type: functional, cell-based; settings: Mus musculus
Mus musculus = organism: Mus musculus; test: Antineoplastic activity against mammary adenocarcinoma M16c cell; IA=Inactive; assay type: functional

Measured: Activity

Cn1nnc2c(C(N)=O)cnn2c1=O
inactive: all assays above
